Reference: patent publication US10065957B2, “Beta-lactamase inhibitors” (Novartis AG, priority 2016, dated 2018)

Key:
Type in all cases: cell-based
[1] = system: E. coli (AmpC); assay: microbe, parasite or virus in culture; conditions: for MIC of aztreonam with beta-lactamase inhibitor: AZ + BLI at 2 μg/mL; for Activity of Beta-Lactam 5 with beta-lactamase inhibitor: Beta-Lactam 5 + BLI at 2 μg/mL; for MIC of ceftazidime with beta-lactamase inhibitor: Ceft + BLI at 2 μg/mL; for MIC of meropenem with beta-lactamase inhibitor: Mero + BLI at 2 μg/mL
Experimental: (§1) MICs were determined by the broth microdilution method in accordance with Clinical and Laboratories Institute (CLSI) guidelines. In brief, fresh overnight bacterial cultures were suspended in sterile saline, and adjusted to a 0.5 McFarland turbidity standard. Bacterial suspensions were then diluted in cation adjusted Mueller-Hinton Broth (MHB II; BBL) to yield a final inoculum of approximately 5×10^5 colony-forming units (CFU)/mL. A master plate of antibiotics was prepared at a concentration equivalent to hundred-fold the highest desired final concentration in 100% dimethyl sulfoxide (DMSO). The master antibiotic plate was then diluted by serial twofold dilution with a multichannel pipette. The resulting dilution series of compounds were diluted 1:10 with sterile water or a solution of beta-lactamase inhibitor prepared at a concentration equivalent to eleven-fold the desired final concentration in deionized water leading to a 10% DMSO final concentration. A volume of 10 μL of the drug dilution series was transferred to 96-well assay plates. Assay plates were inoculated with 90 μL of bacterial suspensions and incubated at 35° C. for 20 hrs. The assay plates were read using a microtiter plate reader (Molecular Devices) at 600 nm as well as by visual observation with a reading mirror. The lowest concentration of the compound that prevented visible growth was recorded as the MIC. Performance of the assay was monitored by testing aztreonam against laboratory quality control strains in accordance with guidelines of the CLSI.
(§2) Synergy or potentiation of beta-lactam antibiotics through inhibition of Q-lactamases was assessed against an isogenic panel of E. coli strains, each expressing a unique beta-lactamase, and against clinical strains.
The gene encoding AmpC was PCR amplified from the genome of strain P. aeruginosa PAO1 (NB52019) (GenBank ID U5R279) using primer pair E252 (gccCTCGAGggcgaggccccggcggatcgc) (SEQ ID NO: 17) and E253 (tgaGAATTCtcagcgcttcagcggcacct) (SEQ ID NO: 18).
The PCR products were then digested with XhoI and EcoRI and ligated into similarly digested plasmid pAH63-pstS(BlaP). Plasmid pAH63-pstS(BlaP) is a derivative of plasmid pAH63 (J Bacteriol: 183(21): 6384-6393) made by cloning the TEM-1 (bla) promoter and signal peptide encoding region from plasmid pBAD (J Bacteriol. 1995 July 177(14):4121-30) into plasmid pAH63. This fragment was PCR amplified from pBAD using primer pair E192 (ttcaCTGCAGtgaacgttgcgaagcaacggC) (SEQ ID NO:19) and E194 (TCGAggatcctcgagagcaaaaacaggaaggcaaaatgccg) (SEQ ID NO:20), digested with PstI and BamHI and inserted into similarly digested plasmid pAH63. Therefore, expression of beta-lactamases from pAH63-pstS(BlaP) based constructs is constitutive and the signal sequence is provided to direct these proteins to the periplasm. Plasmid pAH63 based vectors are used for insertion into the genome in single copy, however, to provide higher expression levels to allow more sensitive detection of the susceptibility of compounds to the expressed beta-lactamases, the expression inserts contained in these vectors were moved to the replicative multicopy vector pBAD-Kan (J Bacteriol. 1995 July 177(14):4121-30). To accomplish this, the inserts encompassing the beta-lactamase genes, with the associated TEM promoter and signal sequences, were PCR amplified from their corresponding vectors using primer E268 (ccgTCTAGAcggatggcctttttgcgtttc) (SEQ ID NO:21) and E202 (aatcGAATTCttactgaccattaacgcccaagc) (SEQ ID NO:22) for the KPC2 construct, E204 (aatcGAATTCttaacgctgccagtgctcaatc) (SEQ ID NO:23) for the SHV-12 construct and E203 (aatcGAATTCttacagaccgtcggtgacaatc) (SEQ ID NO:24) for the CTX-M-15 construct. These fragments were then digested with XbaI and EcoRI, and each was inserted into pBAD18-kan that had been digested with the same enzymes to generate multicopy vectors expressing KPC-2, SHV-12 and CTX-M-15, respectively. […]

[2] = system: K. pneumoniae NB29323 (CTX-M-15, OXA-48, VEB-1); conditions: AZ + BLI at 2 μg/mL
Experimental: as §1, §2

[3] = system: Enterobacter cloacae NB25044 (CTX-M-12, ACT, KPC-2); conditions: AZ + BLI at 2 μg/mL
Experimental: as §1, with “MIC.” for “MIC. Performance of the assay was monitored by testing aztreonam against laboratory quality control strains in accordance with guidelines of the CLSI.”
as §2

[4] = system: E. coli ATCC 25922, K. pneumoniae ATCC 43816, P. aeruginosa ATCC 27853; assay: Direct antibacterial activity of BLIs alone, summary of Table A; conditions: BLI alone, in words
Experimental: as §1, with “A volume of 10 μL of the drug dilution series was transferred to 96-well assay plates. Assay plates were inoculated with 90 μL of bacterial suspensions and incubated at 35° C. for 20 hrs.” left out

[5] = system: Enterobacter cloacae NB25055 (CMY-2); assay: Potentiation of piperacillin in beta-lactam resistant clinical isolate; conditions: Pip + BLI at 2 μg/mL
Experimental: as §1, §2

[6] = system: K. pneumoniae NB29082 (KPC-2); assay: as above; conditions: Pip + BLI at 2 μg/mL
Experimental: as §1, §2

[7] = system: S. aureus NB01437 (BLA+); assay: as above; conditions: Pip + BLI at 2 μg/mL
Experimental: as §1, §2

For NC(=O)[C@@H]1CC[C@@H]2CN1C(=O)N2OS(=O)(=O)O [Avibactam], the “MIC of aztreonam with beta-lactamase inhibitor” value [1] was at most 0.06 µg/mL, the “Activity of Beta-Lactam 5 with beta-lactamase inhibitor” value [1] was 0.125 µg/mL and the “MIC of ceftazidime with beta-lactamase inhibitor” value [1] was 0.125 µg/mL. For the same molecule, the “MIC of meropenem with beta-lactamase inhibitor” value [1] was at most 0.06 µg/mL, the “Activity of aztreonam with beta-lactamase inhibitor” value [2] was 2 µg/mL and the “Activity of aztreonam with beta-lactamase inhibitor” value [3] was 8 µg/mL. For the same molecule, the direct antibacterial activity [4] was “exhibit direct antibacterial activity”.

O=C1NC[C@@H]2C[C@@H]3CN(C(=O)N3OS(=O)(=O)[O-])[C@H]12.[Na+] [Example 1, Sodium (4R,5aS,8aS)-2,8-dioxohexahydro-2H-1,4-methanopyrrolo[3,4-d][1,3]diazepin-3(4H)-yl sulfate] was tested, and the “MIC of aztreonam with beta-lactamase inhibitor” value [1] was 0.125 µg/mL, the “Activity of Beta-Lactam 5 with beta-lactamase inhibitor” value [1] was 0.25 µg/mL and the “MIC of ceftazidime with beta-lactamase inhibitor” value [1] was 0.25 µg/mL. The “MIC of meropenem with beta-lactamase inhibitor” value [1] was at most 0.06 µg/mL, the “Activity of aztreonam with beta-lactamase inhibitor” value [2] was 0.25 µg/mL and the “Activity of aztreonam with beta-lactamase inhibitor” value [3] was 4 µg/mL. The “Activity of piperacillin with beta-lactamase inhibitor” value [5] was 4 µg/mL, the “Activity of piperacillin with beta-lactamase inhibitor” value [6] was 8 µg/mL and the “Activity of piperacillin with beta-lactamase inhibitor” value [7] was 1 µg/mL. For the same molecule, the direct antibacterial activity [4] was “does not exhibit much direct antibiotic activity”.

With O=C(NC1CCNCC1)[C@@H]1CC[C@@H]2CN1C(=O)N2OS(=O)(=O)O [Relebactam] the “MIC of aztreonam with beta-lactamase inhibitor” value [1] was 0.125 µg/mL, the “Activity of Beta-Lactam 5 with beta-lactamase inhibitor” value [1] was 0.25 µg/mL and the “MIC of ceftazidime with beta-lactamase inhibitor” value [1] was 0.125 µg/mL. The “MIC of meropenem with beta-lactamase inhibitor” value [1] was at most 0.06 µg/mL, the “Activity of aztreonam with beta-lactamase inhibitor” value [2] was 8 µg/mL and the “Activity of aztreonam with beta-lactamase inhibitor” value [3] was over 64 µg/mL.
